Test results as given in ChEMBL document CHEMBL1201862, “PubChem BioAssay data set” (2004).
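These data come from cells grown in 96-well plates and exposed to compound for 48 hours at five concentrations. GI50 = concentration required for 50% inhibition of growth.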 Calls of active or inactive are those of the source. No stated cut-off is given here; in the data, active = GI50 up to about 1.1 µM and inactive = higher.

Experiments:
Experiment in all cases: inhibition of tumour cell growth, NCI panel, 48 h
CAKI-1 = system: CAKI-1
SK-MEL-5 = system: SK-MEL-5
SW-620 = system: SW-620
HCT-116 = system: HCT-116
HOP-62 = system: HOP-62
COLO 205 = system: COLO 205
IGROV-1 = system: IGROV-1
DU-145 = system: DU-145
SR = system: SR
LOX IMVI = system: LOX IMVI
OVCAR-3 = system: OVCAR-3
HOP-92 = system: HOP-92
SK-MEL-2 = system: SK-MEL-2
BT-549 = system: BT-549
K562 = system: K562
PC-3 = system: PC-3
SF-268 = system: SF-268
NCI-H460 = system: NCI-H460
OVCAR-8 = system: OVCAR-8
RPMI-8226 = system: RPMI-8226

Compound | GI50 (CAKI-1) | GI50 (SK-MEL-5) | GI50 (SW-620) | GI50 (HCT-116) | GI50 (HOP-62) | GI50 (COLO 205) | GI50 (IGROV-1) | GI50 (DU-145) | GI50 (SR) | GI50 (LOX IMVI) | GI50 (OVCAR-3) | GI50 (HOP-92) | GI50 (SK-MEL-2) | GI50 (BT-549) | GI50 (K562) | GI50 (PC-3) | GI50 (SF-268) | GI50 (NCI-H460) | GI50 (OVCAR-8) | GI50 (RPMI-8226)
CC(=O)Nc1nc(NC(C)=O)c2nc(CO)[nH]c2n1 | > 100 µM (inactive) | > 100 µM (inactive) | > 100 µM (inactive) | > 100 µM (inactive) | > 100 µM (inactive) | > 100 µM (inactive) | > 100 µM (inactive) | > 100 µM (inactive) | > 100 µM (inactive) | > 100 µM (inactive) | > 100 µM (inactive) | > 100 µM (inactive) | > 100 µM (inactive) | > 100 µM (inactive) | > 100 µM (inactive) | > 100 µM (inactive) | > 100 µM (inactive) | > 100 µM (inactive) | > 100 µM (inactive) | –
COc1cc(O)cc(O)c1C(=O)CC(Cl)(Cl)Cl | > 100 µM (inactive) | > 100 µM (inactive) | > 100 µM (inactive) | > 100 µM (inactive) | > 100 µM (inactive) | > 100 µM (inactive) | > 100 µM (inactive) | > 100 µM (inactive) | > 100 µM (inactive) | > 100 µM (inactive) | > 100 µM (inactive) | > 100 µM (inactive) | – | > 100 µM (inactive) | > 100 µM (inactive) | > 100 µM (inactive) | > 100 µM (inactive) | > 100 µM (inactive) | > 100 µM (inactive) | 40.1 µM (inactive)
CC(=O)OCOC(=O)CN(CC(=O)OCOC(C)=O)Cc1cc2c(cc1OC(C)=O)Oc1cc(OC(C)=O)c(CN(CC(=O)OCOC(C)=O)CC(=O)OCOC(C)=O)cc1C21OC(=O)c2ccccc21 | 2.34 µM (inactive) | 0.953 µM (active) | 0.759 µM (active) | 0.303 µM (active) | 1.1 µM (active) | 0.594 µM (active) | 0.277 µM (active) | 1.47 µM (inactive) | 0.016 µM (active) | 0.299 µM (active) | 0.92 µM (active) | 1.05 µM (active) | 0.369 µM (active) | 0.265 µM (active) | 0.122 µM (active) | 1.42 µM (inactive) | 1.27 µM (inactive) | 0.366 µM (active) | 1.15 µM (inactive) | –
Cc1ccc(C(=O)C#Cc2cn(C3CC(O)C(CO)O3)c(=O)[nH]c2=O)cc1 (stereo not drawn) | 90.2 µM (inactive) | > 100 µM (inactive) | 31 µM (inactive) | 62.2 µM (inactive) | > 100 µM (inactive) | 38.6 µM (inactive) | > 100 µM (inactive) | > 100 µM (inactive) | 35.2 µM (inactive) | 95.9 µM (inactive) | 26.2 µM (inactive) | 32.6 µM (inactive) | > 100 µM (inactive) | > 100 µM (inactive) | – | > 100 µM (inactive) | > 100 µM (inactive) | > 100 µM (inactive) | > 100 µM (inactive) | 67.8 µM (inactive)
CNC(=O)OCC1=C(COC(=O)NC)CN(c2ccc(OC)cc2)C1 | – | > 100 µM (inactive) | > 100 µM (inactive) | > 100 µM (inactive) | > 100 µM (inactive) | > 100 µM (inactive) | > 100 µM (inactive) | > 100 µM (inactive) | > 100 µM (inactive) | > 100 µM (inactive) | > 100 µM (inactive) | > 100 µM (inactive) | > 100 µM (inactive) | > 100 µM (inactive) | > 100 µM (inactive) | > 100 µM (inactive) | > 100 µM (inactive) | > 100 µM (inactive) | > 100 µM (inactive) | > 100 µM (inactive)
CC(c1ccccc1)N1CCN(C(C)c2ccccc2)CC1 (stereo not drawn) | > 100 µM (inactive) | 17.1 µM (inactive) | > 100 µM (inactive) | 43.5 µM (inactive) | > 100 µM (inactive) | – | > 100 µM (inactive) | > 100 µM (inactive) | 35.8 µM (inactive) | > 100 µM (inactive) | 35.4 µM (inactive) | 31.6 µM (inactive) | 35.2 µM (inactive) | > 100 µM (inactive) | 27.7 µM (inactive) | > 100 µM (inactive) | > 100 µM (inactive) | 65.2 µM (inactive) | > 100 µM (inactive) | 26.1 µM (inactive)
CNN1C(=O)c2c(C)c(C)c(C#N)c(N)c2C1=O | > 100 µM (inactive) | > 100 µM (inactive) | > 100 µM (inactive) | > 100 µM (inactive) | – | > 100 µM (inactive) | > 100 µM (inactive) | > 100 µM (inactive) | > 100 µM (inactive) | > 100 µM (inactive) | > 100 µM (inactive) | > 100 µM (inactive) | > 100 µM (inactive) | > 100 µM (inactive) | > 100 µM (inactive) | > 100 µM (inactive) | > 100 µM (inactive) | > 100 µM (inactive) | > 100 µM (inactive) | > 100 µM (inactive)
